Assays:
[1] = target: T1, human orexin 1 receptors (Homo sapiens (Human), UniProt O43613); assay: Radioligand Binding Assay I ([125I]orexin A competition, cell membranes); conditions: read-out: binding I hOx1R Kd
Protocol: (§1) Radioligand Binding Assay I
(§2) For crude cell membrane preparations, cells (CHO, Chinese hamster ovary or HEK, human embryonic kidney) expressing human orexin 1 or human orexin 2 receptors, were washed with HEPES (10 mM, pH 7.5), scraped off the culture plates with the same buffer, and centrifuged at 4° C. for 5 min at 2500×g. The cell pellet was either stored at −80° C. or used directly. Before the experiments, cell membranes were re-suspended in binding assay buffer (10 mM HEPES, 0.5% (w/v) bovine serum albumin, pH 7.5) by homogenisation with a Polytron homogeniser at 50 Hz for 20 s. Cell membranes were also used as made available by commercial providers.
(§3) In initial saturation experiments (to calculate Bmax), cell homogenates (150 μl) were incubated with 25-300 pM of the radioligand ([^125I]orexin A, 50 μl), 8 concentrations in triplicates in the presence or absence Orexin A (1 μM, 50 μl) to define non specific binding. Bound radioactivity was measured, and data were analysed with the program XLFIT or Graphpad Prism. Protein concentration was determined according to the Bradford/BioRad Protein Assay Kit.
(§4) In competition experiments, cell homogenates (150 μl) were incubated in assay buffer (10 mM HEPES, pH 7.5, 0.5% (w/v) bovine serum albumin, 5 mM MgCl2, 1 mM CaCl2, and tween 0.05%) for 1 h at room temperature with about 100 pM of the radioligand ([^125I]orexin A, 2100 Ci/mmole, 50 μl), and with various concentrations of compounds of the invention (50 μl) in triplicates; non-specific binding was determined in the presence of Orexin A (1 μM). Reactions were terminated by vacuum filtration, 3 washes of ice cold wash buffer (Tris-HCl pH 7.4/10 mM, with NaCl 154 mM).

[2] = target: T2, human orexin 2 receptors (Homo sapiens (Human), UniProt O43614); assay: as above; conditions: read-out: binding I hOx2R Kd
T2 sequence (O43614 whole entry): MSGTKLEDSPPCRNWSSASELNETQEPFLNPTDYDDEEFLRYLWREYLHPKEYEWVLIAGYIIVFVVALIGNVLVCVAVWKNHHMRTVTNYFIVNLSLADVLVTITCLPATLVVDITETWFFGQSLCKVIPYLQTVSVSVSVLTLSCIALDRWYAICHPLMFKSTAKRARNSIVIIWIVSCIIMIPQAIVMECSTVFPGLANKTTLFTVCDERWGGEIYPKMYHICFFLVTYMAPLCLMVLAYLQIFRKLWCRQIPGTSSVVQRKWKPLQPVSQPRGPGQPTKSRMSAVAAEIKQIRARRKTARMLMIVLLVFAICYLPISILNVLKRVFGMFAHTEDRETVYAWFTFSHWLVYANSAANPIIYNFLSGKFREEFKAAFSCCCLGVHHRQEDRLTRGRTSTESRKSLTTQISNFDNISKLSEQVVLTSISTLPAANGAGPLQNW
Protocol: as §1, §2, §3, §4

[3] = target: T1, human orexin 1 receptors; assay: Calcium Accumulation in Cells (FLIPR), antagonism of orexin A; type: cell-based; conditions: antagonism of orexin A, Cheng-Prusoff corrected; read-out: FLIPR hOx1R Ki
[4] = target: T2, human orexin 2 receptors; assay: as above; type: cell-based; conditions: antagonism of orexin A, Cheng-Prusoff corrected; read-out: FLIPR hOx2R Ki
Procedure, shortened: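 Cells expressing human orexin 2 receptor, loaded with Fluo4-AM (2 μM) plus probenecid (0.1 mM) for 1 h, then washed. Antagonism read as inhibition of the orexin A calcium fluorescence signal (FLIPR).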

[5] = target: T1, human orexin 1 receptors; assay: Radioligand Binding Assay II ([3H]-SB649868 competition, cell membranes); conditions: read-out: binding II hOx1R Kd
Protocol: (§5) Radioligand Binding Assay II
as §2
(§6) Bound radioactivity was measured, and data were analysed with the program XLFIT or Graphpad Prism. Protein concentration was determined according to the Bradford/BioRad Protein Assay Kit.
as §4, with “1 nM” for “100 pM”, “[^3H]-SB649868, 66” for “([^125I]orexin A, 2100”, “almorexant (10” for “Orexin A (1”, “mM). Competition data is expressed in Table 2 as Kd [μM].” for “mM).”

[6] = target: T2, human orexin 2 receptors; assay: as above; conditions: read-out: binding II hOx2R Kd
Protocol: as §5, §2, §6
as §4, with “1 nM” for “100 pM”, “[^3H]-SB649868, 66” for “([^125I]orexin A, 2100”, “almorexant (10” for “Orexin A (1”

T1 sequence (O43613 whole entry): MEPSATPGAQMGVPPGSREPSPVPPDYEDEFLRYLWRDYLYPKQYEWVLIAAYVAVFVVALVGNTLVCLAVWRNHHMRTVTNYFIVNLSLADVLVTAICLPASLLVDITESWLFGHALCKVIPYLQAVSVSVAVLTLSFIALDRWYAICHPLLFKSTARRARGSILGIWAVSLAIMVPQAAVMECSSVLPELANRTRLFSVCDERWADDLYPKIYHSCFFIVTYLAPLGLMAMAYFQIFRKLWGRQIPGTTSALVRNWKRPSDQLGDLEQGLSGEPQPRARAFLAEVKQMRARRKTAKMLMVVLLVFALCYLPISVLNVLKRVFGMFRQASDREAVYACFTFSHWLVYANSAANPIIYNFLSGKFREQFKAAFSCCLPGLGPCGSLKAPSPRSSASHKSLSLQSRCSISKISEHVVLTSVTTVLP

| SMILES | Kd [1] | Kd [2] | Ki [3] | Ki [4] | Kd [5] | Kd [6] |
| --- | --- | --- | --- | --- | --- | --- |
| CC(Oc1cc(C(F)(F)F)c2c(-c3ccccc3)nn(C)c2n1)C(=O)N[C@@H](C)c1ccccc1 (single isomer, unassigned) [Example 1.73] | 225 nM | 162 nM | 226 nM | 91 nM | – | – |
| C[C@H](NC(=O)COc1cc(C(F)(F)F)c2c(-c3ccccc3F)nn(C)c2n1)c1ccccc1 [Example 1.1, (S)-2-(3-(2-fluorophenyl)-1-methyl-4-(trifluoromethyl)-1H-pyrazolo[3,4-b]pyridin-6-yloxy)-N-(1-phenylethyl)acetamide] | 185 nM | 79 nM | 156 nM | 30 nM | – | – |
| Cc1cc(OCC(=O)N[C@@H](C)c2ccccc2)nc2c1c(-c1ccccc1)nn2C [Example 1.13, (S)-2-(1,4-dimethyl-3-phenyl-1H-pyrazolo[3,4-b]pyridin-6-yloxy)-N-(1-phenylethyl)acetamide] | 45 nM | 143 nM | 181 nM | 233 nM | – | – |
| Cc1cc(OCC(=O)NC(C)CCc2ccccc2)nc2c1c(-c1ccccc1)nn2C (stereo not shown) [Example 1.16, 2-(1,4-dimethyl-3-phenyl-1H-pyrazolo[3,4-b]pyridin 6-yloxy)-N-(4-phenylbutan-2-yl)acetamide] | 116 nM | 28 nM | 456 nM | 49 nM | – | – |
| C[C@H](NC(=O)COc1cc(C(F)(F)F)c2c(-c3ccccc3)nn(C)c2n1)c1ccccc1 [Example 1.17, (S)-2-(1-methyl-3-phenyl-4-(trifluoromethyl)-1H-pyrazolo[3,4-b]pyridin-6-yloxy)-N-(1-phenylethyl)acetamide] | 64 nM | 121 nM | 175 nM | 108 nM | – | – |
| CC(NC(=O)COc1cc(C(F)(F)F)c2c(-c3ccccc3)nn(C)c2n1)c1ccccc1 (stereo not shown) [Example 1.18, 2-(1-methyl-3-phenyl-4-(trifluoromethyl)-1H-pyrazolo[3,4-b]pyridin-6-yloxy)-N-(1-phenylethyl)acetamide] | 36 nM | 63 nM | 48 nM | 26 nM | – | – |
| COc1cccc(-c2nn(C)c3nc(OCC(=O)N[C@@H](C)c4ccccc4)cc(C(F)(F)F)c23)c1 [Example 1.19, (S)-2-(3-(3-methoxyphenyl)-1-methyl-4-(trifluoromethyl)-1H-pyrazolo[3,4-b]pyridin-6-yloxy)-N-(1-phenylethyl)acetamide] | 101 nM | 855 nM | 108 nM | 187 nM | – | – |
| COc1ccc(-c2nn(C)c3nc(OCC(=O)N[C@@H](C)c4ccccc4)cc(C(F)(F)F)c23)cc1 [Example 1.20] | 299 nM | 187 nM | 378 nM | 76 nM | – | – |
| C[C@H](NC(=O)COc1cc(C(F)(F)F)c2c(-c3cccc(F)c3)nn(C)c2n1)c1ccccc1 [Example 1.22, (S)-2-(3-(3-fluorophenyl)-1-methyl-4-(trifluoromethyl)-1H-pyrazolo[3,4-b]pyridin-6-yloxy)-N-(1-phenylethyl)acetamide] | 88 nM | 94 nM | 107 nM | 50 nM | – | – |
| Cc1ccc2c(c1)CC[C@@H]2NC(=O)COc1cc(C)c2c(C3CC3)nn(C)c2n1 [Example 6.44, (S)-2-(3-cyclopropyl-1,4-dimethyl-1H-pyrazolo[3,4-b]pyridin-6-yloxy)-N-(5-methyl-2,3-dihydro-1H-inden-1-yl)acetamide] | – | – | 223 nM | 14 nM | 67 nM | 28 nM |
| Cc1cc(OCC(=O)NC(C)c2cnc3[nH]ccc3c2)nc2c1c(C1CC1)nn2C (stereo not shown) [Example 6.57, N-(1-(1H-pyrrolo[2,3-b]pyridin-5-yl)ethyl)-2-(3-cyclopropyl-1,4-dimethyl-1H-pyrazolo[3,4-b]pyridin-6-yloxy)acetamide] | – | – | 658 nM | 77 nM | 358 nM | 170 nM |
| Cc1cc(OCC(=O)NC(C)c2ccc3c(ccn3C)c2)nc2c1c(C1CC1)nn2C (stereo not shown) [Example 6.59, 2-(3-cyclopropyl-1,4-dimethyl-1H-pyrazolo[3,4-b]pyridin-6-yloxy)-N-(1-(1-methyl-1H-indol-5-yl)ethyl)acetamide] | – | – | 127 nM | 63 nM | 70 nM | 162 nM |
| Cc1ccc2c(n1)CCC2NC(=O)COc1cc(C)c2c(C3CC3)nn(C)c2n1 (stereo not shown) [Example 6.61, 2-(3-cyclopropyl-1,4-dimethyl-1H-pyrazolo[3,4-b]pyridin-6-yloxy)-N-(2-methyl-6,7-dihydro-5H-cyclopenta[b]pyridin-5-yl)acetamide] | – | – | 227 nM | 93 nM | 157 nM | 159 nM |
| Cc1ccc2c(n1)CC[C@@H]2NC(=O)COc1cc(C)c2c(C3CC3)nn(C)c2n1 [Example 6.63, (S)-2-(3-cyclopropyl-1H-dimethyl-1H-pyrazolo[3,4-b]pyridin-6-yloxy)-N-(2-methyl-6,7-dihydro-5H-cyclopenta[b]pyridin-5-yl)acetamide] | – | – | 109 nM | 22 nM | 54 nM | 42 nM |
| CCOc1ccc2c(c1)CC[C@@H]2NC(=O)COc1cc(C)c2c(C3CC3)nn(C)c2n1 [Example 6.68, (S)-2-(3-cyclopropyl-1,4-dimethyl-1H-pyrazolo[3,4-b]pyridin-6-yloxy)-N-(5-ethoxy-2,3-dihydro-1H-inden-1-yl)acetamide] | – | – | 71 nM | 151 nM | 52 nM | 317 nM |
| Cc1ccc2c(n1)CC[C@@H]2NC(=O)COc1cc(C(F)(F)F)c2c(-c3cc(C)oc3C)nn(C)c2n1 [Example 6.79, (S)-2-(3-(2,5-dimethylfuran-3-yl)-1-methyl-4-(trifluoromethyl)-1H-pyrazolo[3,4-b]pyridin-6-yloxy)-N-(2-methyl-6,7-dihydro-5H-cyclopenta[b]pyridin-5-yl)acetamide] | – | – | 23 nM | 7 nM | 34 nM | 90 nM |
| COc1ccc([C@H](C)NC(=O)COc2cc(C(F)(F)F)c3c(-c4cc(C)oc4C)nn(C)c3n2)cc1 [Example 6.80, (S)-2-(3-(2,5-dimethylfuran-3-yl)-1-methyl-4-(trifluoromethyl)-1H-pyrazolo[3,4-b]pyridin-6-yloxy)-N-(1-(4-methoxyphenyl)ethyl)acetamide] | – | – | 6 nM | 7 nM | 12 nM | 32 nM |
| COc1cc2c(cc1OC)C(NC(=O)COc1cc(C)c3c(C4CC4)nn(C)c3n1)CC2 (stereo not shown) [Example 7.1, 2-(3-cyclopropyl-1,4-dimethyl-1H-pyrazolo[3,4-b]pyridin-6-yloxy)-N-(5,6-dimethoxy-2,3-dihydro-1H-inden-1-yl)acetamide] | – | – | 140 nM | 52 nM | 55 nM | 65 nM |
| Cc1ccc([C@H](C)NC(=O)COc2cc(C)c3c(C4CC4)nn(C)c3n2)cc1 [Example 7.11, (S)-2-(3-cyclopropyl-1,4-dimethyl-1H-pyrazolo[3,4-b]pyridin-6-yloxy)-N-(1-p-tolylethyl)acetamide] | – | – | 50 nM | 24 nM | 18 nM | 17 nM |
